Assay results: publication PMC6405842, “Identification of a novel scaffold for a small molecule GPR139 receptor agonist” (Scientific Reports, 2019)
Read-outs that look alike come from different tables or passages of the source.

Target: T1, GPR139 (Homo sapiens, UniProt Q6DWJ6)
T1 construct: host or cells: CHO-k1
T1 sequence (Q6DWJ6 1-353): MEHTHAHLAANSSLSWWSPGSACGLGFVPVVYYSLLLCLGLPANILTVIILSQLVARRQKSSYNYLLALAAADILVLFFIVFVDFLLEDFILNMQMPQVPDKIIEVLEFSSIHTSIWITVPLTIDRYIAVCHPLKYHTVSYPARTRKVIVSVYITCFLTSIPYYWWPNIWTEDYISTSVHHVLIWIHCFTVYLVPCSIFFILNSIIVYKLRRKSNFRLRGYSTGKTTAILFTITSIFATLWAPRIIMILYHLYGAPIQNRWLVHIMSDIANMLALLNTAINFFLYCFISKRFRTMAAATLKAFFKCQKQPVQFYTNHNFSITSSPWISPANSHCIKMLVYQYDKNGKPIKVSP
Test: Fluo-4 calcium mobilization assay, agonist mode, concentration-response curves in CHO-GPR139 cells
Type: cell-based
Description: All compounds were tested on a CHO-k1 cell line stably expressing GPR139 (CHO-GPR139)[11] kindly provided by H. Lundbeck A/S, Denmark. GPR139-specific responses were assessed using a CHO-k1 cell line stably expressing the muscarinic acetylcholine receptor M1 (CHO-M1) (The Missouri S&T cDNA Resource Center, # CEM100TN00). The CHO-GPR139 cells were grown in Dulbecco’s modified Eagle’s medium (DMEM) F12-Kaighn’s (ThermoFisher Scientific # 21127) supplemented with 10% dialyzed fetal bovine serum (United States origin; ThermoFisher Scientific # 26400), 1% GlutaMAX-I (100X) (ThermoFisher Scientific # 35050061), and 100 units/mL penicillin and 100 µg/mL streptomycin (ThermoFisher Scientific # 15140122) and 1 mg/mL geneticin (ThermoFisher Scientific # 11811031). The CHO-M1 cells were grown in Ham’s F12 (ThermoFisher Scientific # 21765) supplemented with 10% fetal bovine serum (South American origin; ThermoFisher Scientific # 10270) + 100 units/mL penicillin and streptomycin and 0.25 mg/mL geneticin.
The Fluo-4 Ca^2+-assay was performed as described previously, with minor modifications. After 1 hour incubation with the Fluo-4 dye, the CHO-GPR139 cells were washed with 100 μL HEPES buffer (Hank’s Balanced Salt Solution (HBBS, ThermoFisher Scientific # 14175053) supplemented with 20 mM HEPES, 1 mM MgCl2, 1 mM CaCl2, pH = 7.4) and the compound library was then added in concentrations between 25–63 μM dissolved in HEPES buffer (supplemented with 2.5 mM probenecid and 1% DMSO) and pre-incubated for 10 min at 37 °C. 33 μL of 3.2 μM 1a were added automatically after baseline measurements. […] This set-up allowed us to identify both antagonists and agonists (Fig. 2).
Each compound, for which a concentration response curve was made, was tested at least three times in duplicate measurements. After the incubation with the Fluo-4 dye and a wash, 100 μL HEPES buffer (supplemented with 2.5 mM probenecid) was added to each well and incubated for 10 minutes at 37 °C before recording. 33 μL of compounds (4× concentrated) were added automatically after baseline measurements.
The Ca^2+ and ERK responses were normalized as indicated and the concentration response curves were fitted by Prism 6 software (GraphPad) using nonlinear regression in a sigmoidal model with variable slope, as has been previously described.

[1] = calcium mobilization assay, GPR139, values printed with a minus sign, read-out: pEC50 ± SEM (converted)
[2] = calcium mobilization assay, efficacy normalized to compound 1a
[3] = CHO-GPR139 cells, at least three independent concentration-response curves in duplicate, read-out: EC50
[4] = CHO-GPR139 cells, normalized to buffer (0%) and 8 μM 1a (100%)
[5] = Table S1, 11 primary screen hits
[6] = Table S1, 11 primary screen hits, read-out: EC50
[7] = Table S1, normalized to compound 1a

Compound | pEC50 ± S.E.M. (CHO-GPR139 cells) | EC50 [3] [µM] | Emax ± S.E.M. [4] [%] | further results
O=C(O)C1CC=CCC1c1nnc(CSc2ccc(Cl)cc2)o1 (stereo not shown) [AC004] | – | – | – | EC50 [1]: 0.219 µM; Emax [2]: 116%
C=CCN(CC=C)C(=O)CN1C(=O)NC(C)(c2ccc3c(c2)OCO3)C1=O (stereo not shown) [AC7] | 6.41 ± 0.12 | 0.39 | 112 ± 5 | –
Cc1ccc(C2(C)NC(=O)N(Cc3cn4cc(Cl)ccc4n3)C2=O)cc1 (stereo not shown) [AC10] | – | – | – | pEC50 ± S.E.M. [5]: 5.55 ± 0.03; EC50 [6]: 2.83 µM; Emax ± S.E.M. [7]: 89 ± 5%
CC1(C2CC2)NC(=O)N(CC(=O)N2CCCSc3ccccc32)C1=O (stereo not shown) [AC11] | – | – | – | pEC50 ± S.E.M. [5]: 5.15 ± 0.12; EC50 [6]: 7.07 µM; Emax ± S.E.M. [7]: 33 ± 3%
CC(C)OCCCNC(=O)NC(C)c1ccc2c(c1)OCO2 (stereo not shown) [AC12] | – | – | – | pEC50 ± S.E.M. [5]: 5.43 ± 0.19; EC50 [6]: 3.74 µM; Emax ± S.E.M. [7]: 116 ± 8%
Cc1ccc(CNC(=O)NCC2CN(CC(C)C)CCO2)cc1 (stereo not shown) [AC13] | – | – | – | pEC50 ± S.E.M. [5]: 4.68 ± 0.13; EC50 [6]: 20.7 µM; Emax ± S.E.M. [7]: 90 ± 5%
O=C(NCCCc1nc2ccccc2[nH]1)NC1CCSc2ccc(F)cc21 (stereo not shown) [AC14] | 6.11 ± 0.12 | 0.78 | 93 ± 3 | –
CN(CC(=O)NC1CC1)C(=O)COc1ccc2oc3c(c2c1)CCCC3 [AC16] | – | – | – | pEC50 ± S.E.M. [5]: 4.92 ± 0.12; EC50 [6]: 11.9 µM; Emax ± S.E.M. [7]: 44 ± 4%
O=C(NCCc1cc(Cl)c2c(c1)OCCO2)NCc1cccnc1-n1ccnc1 [AC37] | – | – | – | pEC50 ± S.E.M. [5]: 5.55 ± 0.19; EC50 [6]: 2.8 µM; Emax ± S.E.M. [7]: 105 ± 8%
CC(C)OCCCNC(=O)NC(C)c1cccc(Cl)c1 (stereo not shown) [AC76] | 6.03 ± 0.10 | 0.94 | 97 ± 4 | –
CC(C)OCCCNC(=O)NC(C)c1ccccc1Cl (stereo not shown) [AC77] | 6.22 ± 0.17 | 0.6 | 102 ± 4 | –
CC(C)COCCCNC(=O)NC(C)c1ccc(Br)cc1 (stereo not shown) [AC82] | 6.54 ± 0.08 | 0.29 | 102 ± 6 | –
Cc1ccc(C(=O)CN2C(=O)NC(C)(c3ccc4c(c3)OCO4)C2=O)cc1 (stereo not shown) [AC136] | 6.01 ± 0.03 | 0.99 | 67 ± 6 | –
COc1ccc(OC)c(C(=O)CN2C(=O)NC(C)(c3ccc4c(c3)OCO4)C2=O)c1 (stereo not shown) [AC137] | 6.27 ± 0.08 | 0.54 | 92 ± 3 | –
COc1ccc(C(=O)CN2C(=O)NC(C)(c3ccc4c(c3)OCO4)C2=O)cc1OC (stereo not shown) [AC138] | 6.10 ± 0.14 | 0.79 | 100 ± 5 | –
CC(NC(=O)NCC(=O)NCC1CC1)c1ccc(F)cc1Cl (stereo not shown) [AC178] | 6.55 ± 0.07 | 0.28 | 97 ± 5 | –
CC1CC(C)CN(C(=O)CN2C(=O)NC(C)(c3cccc4ccccc34)C2=O)C1 (stereo not shown) [AC186] | 6.39 ± 0.12 | 0.41 | 89 ± 5 | –

Compound | pEC50 ± S.E.M. (CHO-GPR139 cells) | EC50 [3] [µM] | Emax ± S.E.M. [4] [%] | further results
CC1(c2cccc3ccccc23)NC(=O)N(CC(=O)N2CCCCCC2)C1=O (stereo not shown) [AC187] | 6.13 ± 0.22 | 0.74 | 102 ± 5 | –
CC1(c2ccc3c(c2)OCCO3)NC(=O)N(CC(=O)c2ccc[nH]2)C1=O (stereo not shown) [AC191] | 6.46 ± 0.16 | 0.35 | 99 ± 2 | –
CC1(c2ccc3c(c2)OCO3)NC(=O)N(CC(=O)N2CCCCC2)C1=O (stereo not shown) [AC192] | 6.12 ± 0.13 | 0.75 | 95 ± 1 | –
CC1(c2ccc3c(c2)OCCO3)NC(=O)N(CC(=O)c2c[nH]c3ccccc23)C1=O (stereo not shown) [AC200] | 6.34 ± 0.11 | 0.46 | 111 ± 5 | –
CC(=O)Oc1cccc2c1C(=O)c1c(OC(C)=O)cc(C(=O)O)cc1C2=O [AC201] | – | – | – | EC50 (calcium mobilization assay, GPR139, read-out: EC50): 1.8 µM; EC50 [1]: 1.78 µM; Emax [2]: 96%
CC1(c2ccc3c(c2)OCO3)NC(=O)N(CC(=O)N2CCCc3ccccc32)C1=O (stereo not shown) [AC202] | 6.47 ± 0.09 | 0.34 | 102 ± 2 | –
CC1(c2ccc3c(c2)OCCO3)NC(=O)N(CC(=O)c2ccc3c(c2)OCO3)C1=O (stereo not shown) [AC205] | 6.36 ± 0.14 | 0.44 | 100 ± 3 | –
CC1(c2ccc3c(c2)OCCO3)NC(=O)N(CC(=O)N2CCc3ccccc3C2)C1=O (stereo not shown) [AC209] | 6.54 ± 0.17 | 0.29 | 107 ± 3 | –
CCc1cccc2c(C(=O)CN3C(=O)NC(C)(c4ccc5c(c4)OCCO5)C3=O)c[nH]c12 (stereo not shown) [AC210] | 6.20 ± 0.24 | 0.63 | 115 ± 8 | –
CC(C)(C)c1cc(NC(=O)Nc2ccc(-c3cn4c(n3)sc3cc(OCCN5CCOCC5)ccc34)cc2)no1 [AC220] | – | 0.49 | – | Emax [4]: 103 ± 3%
C=CCN(CC=C)C(=O)CN1C(=O)NC(C)(c2cccc3ccccc23)C1=O (stereo not shown) [AC229] | 6.36 ± 0.16 | 0.43 | 95 ± 2 | –
C=C(C)CN(CC)C(=O)CN1C(=O)NC(C)(c2cccc3ccccc23)C1=O (stereo not shown) [AC230] | 6.31 ± 0.27 | 0.49 | 89 ± 1 | –
CC1(c2cccc3ccccc23)NC(=O)N(CC(=O)c2cc3ccccc3o2)C1=O (stereo not shown) [AC233] | 6.47 ± 0.19 | 0.34 | 80 ± 6 | –
CC1(c2cccc3ccccc23)NC(=O)N(CC(=O)c2ccc3c(c2)OCO3)C1=O (stereo not shown) [AC234] | 6.42 ± 0.07 | 0.38 | 99 ± 3 | –
CC1(c2cccc3ccccc23)NC(=O)N(CC(=O)c2ccc(CCNS(C)(=O)=O)s2)C1=O (stereo not shown) [AC241] | 6.38 ± 0.06 | 0.42 | 88 ± 3 | –
CC1(c2cccc3ccccc23)NC(=O)N(CC(=O)NCCc2ccccc2)C1=O (stereo not shown) [AC243] | 6.45 ± 0.11 | 0.35 | 86 ± 5 | –
